Values after ≈ are worked out from the molar mass of the structure shown. Active and inactive are the calls of the source. The calls are words filed in the database; no cut-off is given here.

These results are taken from ChEMBL document CHEMBL4152357, “Efflux pump inhibition by 11H-pyrido[2,1-b]quinazolin-11-one analogues in mycobacteria” (Bioorg Med Chem, 2018).

The test system of data set [1] is Mycolicibacterium smegmatis. The experiment in a line: Growth inhibition of Mycobacterium smegmatis MC2 155 ATCC 700084 after 72 hrs by MTT assay. The data set is classed as organism-based. On the technique in general: Tetrazolium dyes change colour on reduction, which living cells bring about.
The target of data set [2] is T1, Multidrug efflux pump LfrA (Mycobacterium smegmatis (strain ATCC 700084 / mc(2)155)) (UniProt A0R5K5).
T1 sequence (whole entry): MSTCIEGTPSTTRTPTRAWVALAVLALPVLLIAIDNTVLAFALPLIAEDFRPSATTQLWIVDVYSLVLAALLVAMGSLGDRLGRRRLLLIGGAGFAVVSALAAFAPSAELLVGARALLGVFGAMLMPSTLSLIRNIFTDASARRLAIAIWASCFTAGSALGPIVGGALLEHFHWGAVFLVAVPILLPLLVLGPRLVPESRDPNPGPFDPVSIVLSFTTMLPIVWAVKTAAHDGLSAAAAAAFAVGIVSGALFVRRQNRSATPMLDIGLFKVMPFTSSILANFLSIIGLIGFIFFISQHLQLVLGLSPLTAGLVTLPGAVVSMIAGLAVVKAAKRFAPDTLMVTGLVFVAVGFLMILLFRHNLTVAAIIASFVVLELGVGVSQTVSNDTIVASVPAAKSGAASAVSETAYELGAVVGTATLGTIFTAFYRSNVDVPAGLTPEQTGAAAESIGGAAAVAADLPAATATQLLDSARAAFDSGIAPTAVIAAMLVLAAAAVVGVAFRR
The experiment in a line: Inhibition of LfrA in Mycobacterium smegmatis MC2 155 ATCC 700084 assessed as decrease in EtBr MIC at 0.78 ug/ml after 72 hrs by MTT assay relative to control. Conditions: Mycolicibacterium smegmatis MC2 155.

Data set [3] concerns the target T1, Multidrug efflux pump LfrA (Mycobacterium smegmatis (strain ATCC 700084 / mc(2)155)). As to the kind of experiment: Inhibition of LfrA in Mycobacterium smegmatis MC2 155 ATCC 700084 assessed as decrease in norfloxacin MIC at 12.5 ug/ml after 72 hrs by MTT assay relative to control. Conditions: Mycolicibacterium smegmatis MC2 155.
The target is the same in data set [4]. As to the kind of experiment: Inhibition of LfrA in Mycobacterium smegmatis MC2 155 ATCC 700084 assessed as potentiation of norfloxacin-induced bactericidal activity at 100 ug/ml after 48 hrs. The conditions noted are these: Mycolicibacterium smegmatis MC2 155.
For data set [5] the target is unchanged. As to the kind of experiment: Inhibition of LfrA in Mycobacterium smegmatis MC2 155 ATCC 700084 assessed as potentiation of norfloxacin-induced bactericidal activity at 12.5 ug/ml after 48 hrs. The conditions noted are these: Mycolicibacterium smegmatis MC2 155.
Data set [6] has as its system CC-1. As to the kind of experiment: Cytotoxicity against rat CC1 cells assessed as decrease in cell survival at 200 ug/ml after 24 hrs by Alamar blue reduction assay relative to control. The data set is classed as cell-based. Conditions: cc-1, 24 h. In general terms: The colour change of resazurin is a common sign of viable cells or microbes.
The nature of data set [7]: Cytotoxicity against rat CC1 cells assessed as cell survival at 100 ug/ml after 24 hrs by Alamar blue reduction assay relative to control. The data set is classed as cell-based, CC-1. The conditions noted are these: read-out: Survival.
Data set [8] in a line: Cytotoxicity against rat CC1 cells assessed as cell survival at 50 ug/ml after 24 hrs by Alamar blue reduction assay relative to control. The data set is classed as cell-based, CC-1. Conditions: read-out: Survival.
The target in data set [9] is T1, Multidrug efflux pump LfrA (Mycobacterium smegmatis (strain ATCC 700084 / mc(2)155)). The experiment in a line: Inhibition of LfrA in Mycobacterium smegmatis MC2 155 ATCC 700084 assessed as increase in norfloxacin accumulation at 25 ug/ml measured every 5 mins for 35 mins by fluorometric analysis. The conditions noted are these: Mycolicibacterium smegmatis MC2 155.

Data set [10] has the same target. The experiment in a line: Inhibition of LfrA in Mycobacterium smegmatis MC2 155 ATCC 700084 assessed as decrease in EtBr MIC at 100 ug/ml after 72 hrs by MTT assay relative to control. The conditions noted are these: Mycolicibacterium smegmatis MC2 155.
For data set [11] the target is unchanged. The experiment in a line: Inhibition of LfrA in Mycobacterium smegmatis MC2 155 ATCC 700084 assessed as decrease in norfloxacin MIC at 25 ug/ml after 72 hrs by MTT assay relative to control. The conditions noted are these: Mycolicibacterium smegmatis MC2 155.
Data set [12] has the same target. As to the kind of experiment: Inhibition of LfrA in Mycobacterium smegmatis MC2 155 ATCC 700084 assessed as potentiation of EtBr-induced bactericidal activity at 2 ug/ml after 24 hrs. The conditions noted are these: Mycolicibacterium smegmatis MC2 155.
The target is the same in data set [13]. As to the kind of experiment: Inhibition of LfrA in Mycobacterium smegmatis MC2 155 ATCC 700084 assessed as potentiation of EtBr-induced bactericidal activity at 2 ug/ml after 48 hrs. Conditions: Mycolicibacterium smegmatis MC2 155.
Data set [14] shares this target. As to the kind of experiment: Inhibition of LfrA in Mycobacterium smegmatis MC2 155 ATCC 700084 assessed as increase in EtBr accumulation at 25 ug/ml measured every 5 mins for 35 mins by fluorometric analysis. The conditions noted are these: Mycolicibacterium smegmatis MC2 155.
Data set [15] shares this target. The experiment in a line: Inhibition of LfrA in Mycobacterium smegmatis MC2 155 ATCC 700084 assessed as increase in EtBr accumulation at 50 ug/ml measured every 5 mins for 35 mins by fluorometric analysis. Conditions: Mycolicibacterium smegmatis MC2 155.

For the molecule `O=c1c2cccc(F)c2nc2ccccn12`, the MIC in data set [1] stood at 200 µg/mL (≈ 934 µM). Besides, the fold change (FC) is 2 in data set [2] and 16 in data set [3]. Besides, the fractional inhibitory concentration index (FICI) worked out at 0.3 in data set [2] and 0.12 in data set [3]. In addition, the Activity (deltalog10CFU/ml) in data set [4] and in [5] was 4 each time. Moreover, the values for the Activity in data set [6] and in data set [9] were above 50% and 3000 FU, respectively. Further, the viability at 24 h, 100 ug/ml in data set [7] came to 93%. Moreover, the viability at 24 h, 50 ug/ml in [8] turned out to be 96%.

`Cc1cccn2c(=O)c3cccc(Cl)c3nc12` had an MIC in data set [1] of 200 µg/mL (≈ 817 µM). Further, the fold change (FC) was found to be 8 in data set [10] and 4 in data set [11]. Moreover, the figures for the fractional inhibitory concentration index (FICI) in data set [10] and in data set [11] were 0.62 and 0.37, respectively. Besides, the Activity (deltalog10CFU/ml) is 7 in data set [12] and above 3 in data set [13]. The Activity is above 50% in [6] and 400 FU in data set [15]. The viability at 24 h, 100 ug/ml in [7] is 42%. Also, in data set [8], the viability at 24 h, 50 ug/ml turned out to be 40%. Further, the inhibition result in data set [14] and in data set [9] was “Active” throughout.
